Data on 17 compounds can be found in ChEMBL document CHEMBL1154458, “QSAR study on tetrahydroquinoline analogues as plasmodium protein farnesyltransferase inhibitors: a comparison of rationales of malarial and mammalian enzyme inhibitory activities for selectivity” (Eur J Med Chem, 2008).

Test [1] is described as follows: Inhibition of Plasmodium falciparum PFT.
Test [2] concerns Plasmodium falciparum. The test can be described thus: Antiplasmodial activity against Plasmodium falciparum 3D7. It is filed as functional, organism-based.
Test [3] in a line: Inhibition of rat PFT.

Turning to `C=C(C)CN(C1Cc2cc(C#N)ccc2N(Cc2cncn2C)C1)S(=O)(=O)c1cn(C)cn1` (stereo unspecified), the negative-log IC50 (pIC50) was 9.22 in test [1] and 9.16 in test [3]. In test [2], this compound gave an IC50 of 0.00692 µM.
In the case of `Cn1cnc(S(=O)(=O)N(Cc2ccccc2)C2Cc3cc(C#N)ccc3N(Cc3cncn3C)C2)c1` (stereo unspecified), the pIC50 in test [1] was 9.22; in test [3], 8.92. In test [2], this compound showed an IC50 of 0.00501 µM.
For `Cn1cnc(S(=O)(=O)N(CC(=O)OC(C)(C)C)C2Cc3cc(C#N)ccc3N(Cc3cncn3C)C2)c1` (stereo unspecified) the same measures were 9.05, 8.92 and 0.00501 µM.
Taken in the same sequence, the figures for `Cc1ccccc1CN(C1Cc2cc(C#N)ccc2N(Cc2cncn2C)C1)S(=O)(=O)c1cn(C)cn1` (stereo unspecified) were 8.82, 8.47 and 0.055 µM.
Take `Cn1cncc1CN1CC(N(Cc2ccccn2)S(=O)(=O)c2ccccn2)Cc2cc(C#N)ccc21` (stereo unspecified): the figures for the negative-log IC50 (pIC50) in test [1] and in test [3] were 8.55 and 8.42, respectively. Moreover, inhibition in test [2] was half-maximal at 0.0513 µM (IC50).
On to `Cn1cncc1CN1CC(N(CC(=O)NC(C)(C)C)S(=O)(=O)c2nccn2C)Cc2cc(C#N)ccc21` (stereo unspecified), for which the negative-log IC50 (pIC50) came out at 8.1 in test [1] and 8.3 in test [3]. In test [2], this compound had an IC50 of more than 5.01 µM.
Taken in the same sequence, the figures for `C=C(Br)CN(C1Cc2cc(C#N)ccc2N(Cc2cncn2C)C1)S(=O)(=O)c1cn(C)cn1` (stereo unspecified) were 9.4, 9.1 and 0.00603 µM.
For `Cn1cnc(S(=O)(=O)N(Cc2ccc3ccccc3c2Br)C2Cc3cc(C#N)ccc3N(Cc3cncn3C)C2)c1` (stereo unspecified) the same measures were 7.55, 6 and 3.02 µM.
As to `Cn1cnc(S(=O)(=O)N(CC(=O)NC(C)(C)C)C2Cc3cc(C#N)ccc3N(Cc3cncn3C)C2)c1` (stereo unspecified), the values for the negative-log IC50 (pIC50) in test [1] and in test [3] were 8.92 and 8.82, respectively. It took 0.00501 µM to reach half-maximal inhibition in test [2] (IC50).
Taken in the same sequence, the figures for `Cn1cncc1CN1CC(N(CC(=O)NC(C)(C)C)S(=O)(=O)c2cccnc2)Cc2cc(C#N)ccc21` (stereo unspecified) were 7.6, 8.22 and 2.69 µM.
Taken in the same sequence, the figures for `Cn1cncc1CN1CC(N(CC(=O)NC(C)(C)C)S(=O)(=O)c2ccc(F)cc2)Cc2cc(C#N)ccc21` (stereo unspecified) were 7.38, 8.12 and more than 5.01 µM.
Taken in the same sequence, the figures for `Cn1cncc1CN1CC(N(Cc2cc3nsnc3cc2Cl)S(=O)(=O)c2ccccn2)Cc2cc(C#N)ccc21` (stereo unspecified) were 7.26, 8 and 3.02 µM.
As for `Cc1onc(-c2ccccc2)c1CN(C1Cc2cc(C#N)ccc2N(Cc2cncn2C)C1)S(=O)(=O)c1ccccn1` (stereo unspecified), the figures for the pIC50 in test [1] and in test [3] were 9.1 and 8.52, respectively. The compound also gave an IC50 in test [2] of 0.112 µM.
Regarding `Cn1cnc(S(=O)(=O)N(CC2CCN(C(=O)OC(C)(C)C)CC2)C2Cc3cc(C#N)ccc3N(Cc3cncn3C)C2)c1` (stereo unspecified), the results for the negative logarithm of the IC50 (pIC50) in test [1] and in test [3] were 8.96 and 8.5, respectively. Also, in test [2], the concentration for half-maximal inhibition (IC50) was 0.1 µM.
With `Cn1cncc1CN1CC(N(Cc2ccc3ccccc3c2Br)S(=O)(=O)c2ccccn2)Cc2cc(C#N)ccc21` (stereo unspecified), the pIC50 in test [1] is on record as 6.78; in test [3], 6.36. In test [2], the 50% inhibitory concentration (IC50) is 2.75 µM.
Consider `Cn1cncc1CN1CC(N(CC(=O)NC(C)(C)C)S(=O)(=O)c2ccncc2)Cc2cc(C#N)ccc21` (stereo unspecified), for which the negative logarithm of the IC50 (pIC50) is 6 in test [1] and 6.8 in test [3]. The same compound gave an IC50 in test [2] of more than 5.01 µM.
On to `Cn1cncc1CN1CC(N(CC(=O)NC(C)(C)C)S(=O)(=O)c2ccccn2)Cc2cc(C#N)ccc21` (stereo unspecified), for which the negative-log IC50 (pIC50) in test [1] was determined as 8.85; in test [3] it was 8.75. Further, in test [2], the half-inhibitory concentration (IC50) was 0.0851 µM.

As usually defined, the pIC50 is the IC50 on a negative log10 scale, so that one unit is a factor of ten. The IC50 is the concentration needed to halve the response being measured. High values mean lower potency, low ones higher potency.
